# Measured values published in PMC8348310, “Antioxidants Isolated from Elaeagnus umbellata (Thunb.) Protect against Bacterial Infections and Diabetes in Streptozotocin-Induced Diabetic Rat Model” (Molecules, 2021).
# Tests used:
# Salmonella typhi = assay: Agar well diffusion, zone of inhibition; type: cell-based; settings: Salmonella enterica, TYPHI, 24 h
# Staphylococcus aureus = assay: Agar well diffusion, zone of inhibition; type: cell-based; settings: 37 °C, 24 h
# Procedure: The antibacterial activity of the isolated compounds (morin, phloroglucinol, and 1-hexyl benzene) was determined using agar well diffusion method. Muller–Hinton agar media was prepared and autoclaved at 15 lbs pressure for 20 min and cooled to 45 °C. […] The entire wells were filled with 100 µL of the isolated compounds (stock solution: 1 mg/mL) using microtiter-pipette and allowed to diffuse at room temperature for 2 h. The plates were incubated at 37 °C for 24 h. In the center hole, Imipenem was added which served as positive control. Simultaneous, addition of an equal concentration of DMSO solvent instead of isolated compounds was used as blank. After incubation, the zones of inhibition were measured in millimeters (mm) and mean values were calculated. The experiments were performed in triplicates.
# Proteus mirabilis = assay: Agar well diffusion, zone of inhibition; type: cell-based; settings: 37 °C, 24 h
# Procedure: (§1) Antibacterial potential of isolated compound was investigated against both Gram-positive and Gram-negative bacterial strains; Escherichia coli, Bacillus cereus, Salmonella typhi, Klebsiella pneumonia, Pseudomonas aeruginosa and Proteus mirabilis. Bacterial strains were provided by the Department of Pharmacy, University of Malakand, Khyber Pakhtunkhwa, Pakistan, and were kept at 4 °C in agar slants in freeze-dried condition until further use.
# (§2) Both Gram-positive and Gram-negative bacterial strains Escherichia coli, Bacillus cereus, Salmonella typhi, Klebsiella pneumonia, Pseudomonas aeruginosa and Proteus mirabilis organism viable count per mL in the stock suspension was determined using surface viable counting technique. About 10^8–10^9 colony-forming units (CFU) per mL were used as inoculum in subsequent experiments. A fresh stock suspension was used each time.
# (§3) The antibacterial activity of the isolated compounds (morin, phloroglucinol, and 1-hexyl benzene) was determined using agar well diffusion method. Muller–Hinton agar media was prepared and autoclaved at 15 lbs pressure for 20 min and cooled to 45 °C. The standard bacterial stock suspension 10^8–10^9 CFU/mL were spread on Muller–Hinton agar plates and five wells (3 mm in diameter; four on side and one in center) were punched in plates using a sterile cork borer. The entire wells were filled with 100 µL of the isolated compounds (stock solution: 1 mg/mL) using microtiter-pipette and allowed to diffuse at room temperature for 2 h. The plates were incubated at 37 °C for 24 h. In the center hole, Imipenem was added which served as positive control. Simultaneous, addition of an equal concentration of DMSO solvent instead of isolated compounds was used as blank. After incubation, the zones of inhibition were measured in millimeters (mm) and mean values were calculated. The experiments were performed in triplicates.
# Escherichia coli = assay: Agar well diffusion, zone of inhibition; type: cell-based; settings: 37 °C, 24 h
# Procedure: as §1, §2, §3
# Klebsiella pneumonia = assay: Agar well diffusion, zone of inhibition; type: cell-based; settings: Klebsiella pneumoniae, 37 °C, 24 h
# Procedure: as §1, §2, §3
# Pseudomonas aeruginosa = assay: Agar well diffusion, zone of inhibition; type: cell-based; settings: 37 °C, 24 h
# Procedure: as §1, §2, §3
# Bacillus cereus = assay: Agar well diffusion, zone of inhibition; type: cell-based; settings: 37 °C, 24 h
# Procedure: as §1, §2, §3
# [1] = target: Type-I α-glucosidase (Baker Yeast) (Saccharomyces cerevisiae, UniProt P53341); assay: In vitro α-glucosidase inhibition assay (PNPG); type: biochemical
# From the text: Chemicals such as Tween-80 (Scharlau-chem., Barcelona, Spain), normal saline solution (Utsoka Pharma, Las Bela Baluchistan, Pakistan), lipid profile tests kits (Human, Hamburg, Germany), renal profile tests kits, and antioxidant enzymes kits (Biomed: Germany; diagnostic) were used in in vivo study. Mueller Hinton (MH) agar and broth (Merck, Modderfontein, South Africa) were used to culture the bacterial strains. Various solvents such as methanol, n-hexane, ethyl acetate, and chloroform (Merck, Darmstadt, Germany) were also used in this study.
# The α-glucosidase inhibition potential of morin was determined according to the reported method with minor changes. The reaction mixture was prepared by taking 100 μL α-glucosidase (0.5 unit/mL), 600 μL phosphate buffer (0.1 M; pH 6.9), and 50 μL of isolated compounds (morin, phloroglucinol, and 1-hexyl benzene) with serial dilutions of 31.05, 62.5, 125, 250, 500 and 1000 µg/mL. All the reaction mixtures were incubated at 37 °C for 15 min. The enzymatic reactions were started by adding 100 μL substrate (p-nitro-phenyl-α-D-glucopyranoside) solution (5 mM) formed in phosphate buffer (0.1 M; pH 6.9), finally incubated at 37 °C for 15 min. The reaction was completed by adding sodium carbonate (400 μL; 0.2 M) solution and then at 405 nm absorbance was measured. The blank solution was prepared containing only isolated compounds without α-glucosidase. Percent α-glucosidase inhibition potential was calculated using Equation (3): (3) % α − glucosidase Inhibition =control absorbance−sample absorbance/control absorbance×100
# (§4) All the in vitro and in vivo experiments were analyzed in three replicates and determined as mean ± SEM. Student’s t-test and one way ANOVA followed by Dunnett’s post hoc multiple comparison test was used. p ≤ 0.05 were considered as significant. Linear regression analysis was used to calculate the IC50 value for % DPPH, ABTS, α-amylase, and α-glucosidase inhibition against the different concentrations of the test samples by means of Excel program 2007.
# [2] = target: T1, Type-VI α-amylase (porcine pancreas) (Sus scrofa, UniProt P00690); assay: In vitro α-amylase inhibition assay (DNSA); type: biochemical; settings: read-out: % α-Amylase Inhibition Mean ± SEM
# T1 construct: purchased Sigma Aldrich (Darmstadt, Germany); host or cells: porcine pancreas
# T1 sequence (P00690 16-511): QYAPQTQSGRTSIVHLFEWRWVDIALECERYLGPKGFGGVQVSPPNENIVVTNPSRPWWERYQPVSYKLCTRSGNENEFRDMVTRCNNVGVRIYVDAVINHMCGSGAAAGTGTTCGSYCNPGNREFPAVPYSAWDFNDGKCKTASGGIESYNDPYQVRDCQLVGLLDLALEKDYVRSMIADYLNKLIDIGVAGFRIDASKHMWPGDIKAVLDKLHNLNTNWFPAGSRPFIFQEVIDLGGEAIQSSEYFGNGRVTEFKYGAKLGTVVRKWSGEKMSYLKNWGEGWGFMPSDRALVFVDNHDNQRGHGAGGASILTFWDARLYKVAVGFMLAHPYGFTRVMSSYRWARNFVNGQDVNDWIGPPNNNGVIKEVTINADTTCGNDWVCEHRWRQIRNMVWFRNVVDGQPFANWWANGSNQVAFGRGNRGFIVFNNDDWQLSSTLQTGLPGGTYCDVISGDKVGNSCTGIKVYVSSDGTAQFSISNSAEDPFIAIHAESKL
# Procedure: The α-amylase inhibition activity of morin was assessed using 3, 5-dinitrosalicylic acid (DNSA) assay. Morin, phloroglucinol, and 1-hexyl benzene were dissolved in mixture of 10% DMSO, 0.02M Na2HPO4/NaH2PO4 buffer, and 0.006M NaCl (pH 6.9) and finally dilutions (31.05, 62.5, 125, 250, 500 and 1000 µg/mL) were prepared. In total, 200 μL α-amylase (2 units/mL) was mixed with 200 μL morin and incubated at 30 °C for 10 min. After that, 200 μL starch (1%) was added to each serial dilution and incubated for 3 min. To stop the reaction 200 μL sodium potassium tartrate tetrahydrate reagent, 2M NaOH, and […] DNSA (96mM) reagent were added to the reaction mixture. The reaction mixtures were boiled for 10 min at 85–90 °C in a water bath. After cooling the mixture was diluted with 5mL distilled water and finally at 540 nm absorbance was recorded. A blank solution was prepared containing only isolated compound morin but no enzyme. […] The α-amylase enzyme inhibitory activity was calculated by the following Equation (2): (2) % α − amylase Inhibition =control absorbance−sample absorbance/control absorbance×100
# as §4
# [3] = test system: STZ-induced diabetic rats; assay: STZ-induced diabetic rat model: fasting blood glucose and body weight; type: in vivo, Sprague Dawley adult albino rats; settings: vs diabetic control rats
# Procedure: Sprague Dawley adult albino rats (body weight range = 170–200 g) were used in in vivo studies. The animals were purchased from Rifah Institute of Pharmaceutical Sciences Islamabad. The entire animals were given food and fresh water ad libitum. The animals were adjusted at room temperature around 22–25 °C. The animals were housed three rats per cage and maintained with light/dark cycle of about 12 h. All the in vivo procedures were carried out according to the ARRIVE guidelines and approval was taken from the Departmental Animal Ethical Committee (DAEC/2019/1), University of Malakand.
# (§5) All the animals were separated into nine groups having eight animals each (Table 1). In the current investigational study STZ-induced diabetic model was used to evaluate the anti-hyperglycemic and anti-hyperlipidemic activity of isolated compound morin in chronic multiple dose experiment. All the animals were treated with their respective treatments for 21 days starting daily at 09:00 am. The fasting blood glucose levels were determined at 0, 4th, 7th, 10th, 15th, and 21st days with glucometer from the tail vein. Changes in the body weight were recorded for untreated control, diabetic, and treated groups in fasting condition from day 1 to day 21 of experimental period and are presented as % increase in body weight.
# (§6) According to the reported protocol diabetes was induced into Sprague Dawley adult albino rats by intraperitoneal injection of STZ (50 mg/kg body weight). Blood samples were collected from the tail vein through glucometer strips by means of SD glucometer and the level of blood glucose was measured 72 h after STZ injection. Normal control groups were given normal saline (8 mL/kg, p.o.) as a vehicle, while isolated compound morin to the treatment groups from 3 days after STZ administration for 3 weeks. Animals with blood glucose levels higher than 300 mg/dL were considered diabetic. During the experiment the blood glucose level and body weights were measured.
# [4] = test system: STZ-induced diabetic rats; assay: STZ-induced diabetic rat model: serum biochemical parameters (liver, renal, lipid profile, HbA1c); type: in vivo, Sprague Dawley adult albino rats
# Procedure: as §5, §6
# On 21st day of in vivo antidiabetic activity, all the animals were anesthetized by intraperitoneal (IP) injection of pentobarbital sodium (35 mg/kg body weight) and euthanized by means of cervical decapitation according to the ARRIVE guidelines. Blood samples were collected by cardiac puncture and transferred to EDTA containing tubes. Blood was centrifuged at 3500 rpm for 10 min for the separation of serum. Biochemical parameters like serum alkaline phosphatase (ALP), serum glutamate pyruvate transaminase (SGPT), serum glutamate oxaloacetate transaminase (SGOT) and lipid parameters like total cholesterol (TC), triglycerides (TG), low-density lipoproteins (LDL), high-density lipoprotein (HDL), and serum creatinine in serum were assessed by using Biochemistry analyzer (PS-520; Shenzhen Procan Electronics-China) using diagnostic kits (Reactivos, GPL Barcelona, Spain). According to the reported protocol an enzyme-linked immunosorbent assay (ELISA) kit was used to evaluate the level of glycosylated hemoglobin (HbA1c).
# [5] = test system: STZ-induced diabetic rats; assay: Pancreas histopathological assessment (H & E); type: in vivo, Sprague Dawley adult albino rats; settings: glibenclamide 5 mg/kg
# From the text: For histopathological assessment, the pancreas tissues were removed immediately and washed with cold saline solution to remove the blood. Finally, the pancreas portions were fixed in 10% formalin, dehydrated with mixture of ethanol/xylene and then fixed with paraffin. Staining of tissue slides was done with hematoxylin and eosin (H & E) dye through automatic slide stainer (Sakura Tissue-Tek® DRS™ 2000; Tokyo, Japan). According to the reported assay, the stained slides were observed under microscope to see any variation in pancreatic tissue architecture of STZ-induced diabetic group and treated (glibenclamide/morin) groups.
# [6] = glibenclamide 0.5 mg/kg, morin 15, 30, and 50 mg/kg, vs diabetic control rats
# [7] = glibenclamide 5 mg/kg, morin 15, 30, and 50 mg/kg body weight, serum, day 21, vs diabetic control
# Type-I α-glucosidase (Baker Yeast), sequence (P53341 whole entry): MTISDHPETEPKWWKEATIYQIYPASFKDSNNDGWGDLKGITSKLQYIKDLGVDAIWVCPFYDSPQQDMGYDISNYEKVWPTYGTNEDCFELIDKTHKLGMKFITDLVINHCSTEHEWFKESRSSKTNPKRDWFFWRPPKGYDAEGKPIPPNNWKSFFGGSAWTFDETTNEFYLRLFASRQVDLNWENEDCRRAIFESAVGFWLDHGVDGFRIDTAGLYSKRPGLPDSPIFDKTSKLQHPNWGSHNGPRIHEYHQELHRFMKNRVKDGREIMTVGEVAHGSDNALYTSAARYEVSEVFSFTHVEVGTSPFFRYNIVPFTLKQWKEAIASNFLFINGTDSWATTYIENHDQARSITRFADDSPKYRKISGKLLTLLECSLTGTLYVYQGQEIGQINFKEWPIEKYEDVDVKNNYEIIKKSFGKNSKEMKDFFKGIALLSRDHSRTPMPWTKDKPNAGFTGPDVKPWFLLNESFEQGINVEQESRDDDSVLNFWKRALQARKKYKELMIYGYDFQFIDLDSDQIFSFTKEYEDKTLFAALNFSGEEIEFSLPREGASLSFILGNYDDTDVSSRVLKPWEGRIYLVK
compound,measurement,setting,value
"C[C@@H](O)[C@H]1C(=O)N2C(C(=O)O)=C(SCCN=CN)C[C@H]12 [Imipenem, reference compound]",zone of inhibition at 100 µg/mL,Salmonella typhi,33 ± 0.1 mm
same,zone of inhibition at 100 µg/mL,Staphylococcus aureus,25 ± 0.3 mm
same,zone of inhibition at 100 µg/mL,Proteus mirabilis,30 ± 0.5 mm
same,zone of inhibition at 100 µg/mL,Escherichia coli,33 ± 0.2 mm
same,zone of inhibition at 100 µg/mL,Klebsiella pneumonia,29 ± 0.5 mm
same,zone of inhibition at 100 µg/mL,Pseudomonas aeruginosa,27 ± 1.1 mm
same,zone of inhibition at 100 µg/mL,Bacillus cereus,30 ± 0.5 mm
"C[C@H]1O[C@H](O[C@H]2[C@H](O)[C@@H](O)[C@@H](O[C@H]3[C@H](O)[C@@H](O)C(O)O[C@@H]3CO)O[C@@H]2CO)[C@H](O)[C@@H](O)[C@@H]1N[C@H]1C=C(CO)[C@@H](O)[C@H](O)[C@H]1O (stereo partly shown) [Standard acarbose, acarbose, reference compound]",% α-Glucosidase Inhibition Mean ± SEM,[1]; 31.05 µg/mL,60 ± 0.4%
same,% α-Glucosidase Inhibition Mean ± SEM,[1]; 62.5 µg/mL,68 ± 0.5%
same,% α-Glucosidase Inhibition Mean ± SEM,[1]; 125 µg/mL,71 ± 0.5%
same,% α-Glucosidase Inhibition Mean ± SEM,[1]; 250 µg/mL,77 ± 1.0%
same,% α-Glucosidase Inhibition Mean ± SEM,[1]; 500 µg/mL,82 ± 0.4%
same,% α-Glucosidase Inhibition Mean ± SEM,[1]; 1000 µg/mL,89 ± 0.5%
same,inhibition at 31.05 µg/mL,[2],48 ± 0.4%
same,inhibition at 62.5 µg/mL,[2],62 ± 0.5%
same,inhibition at 125 µg/mL,[2],69 ± 0.5%
same,inhibition at 250 µg/mL,[2],75 ± 1.1%
same,inhibition at 500 µg/mL,[2],83 ± 0.5%
same,inhibition at 1000 µg/mL,[2],90 ± 0.5%
"COc1ccc(Cl)cc1C(=O)NCCc1ccc(S(=O)(=O)NC(=O)NC2CCCCC2)cc1 [glibenclamide, reference compound]",body weight,"[3]; glibenclamide 0.5 mg/kg, p.o.",significantly (p < 0.001) reversed the diabetes-induced decrease in body weight
same,fasting glucose level,"[3]; glibenclamide 5 mg/kg body weight, day 21",significantly (p < 0.001) decreased
same,HDL cholesterol,[4]; [6],significantly increased (p < 0.01)
same,HbA1c level,[4]; [6],significant decrease (p < 0.01; p < 0.001)
same,LDL level,[4]; [6],significant decrease (p < 0.01; p < 0.001)
same,TC level,[4]; [6],significant decrease (p < 0.01; p < 0.001)
same,TG level,[4]; [6],significant decrease (p < 0.01; p < 0.001)
same,serum creatinine level,"[4]; glibenclamide 5 mg/kg, morin 15, 30, and 50 mg/kg body weight, day 21, vs diabetic control",significantly reduced (p < 0.01; p < 0.001)
same,ALP level,[4]; [7],significantly reduced (p < 0.01; p < 0.001)
same,SGOT level,[4]; [7],significantly reduced (p < 0.01; p < 0.001)
same,SGPT level,[4]; [7],significantly reduced (p < 0.01; p < 0.001)
same,pancreas histopathology,[5],did not show any violation from the normal histological pattern
